# Assay results from patent US7744867B2, “PTPase inhibitors and method of using same” (The Cleveland Clinic Foundation, priority 2001, dated 2010).
# Experiments:
# [1] = system: Jak2 and Stat5 tyrosine phosphorylation; experiment: IL-3-induced Jak2/Stat5 tyrosine phosphorylation in Baf3 cells; type: cell-based, murine
# Method: For induction of cellular protein phosphorylation by sodium stibogluconate or pervanadate, Baf3 cells were incubated in 0.1% FCS RPMI 1640 medium at 37° C. for 16 hours. The cells were then washed twice in RPMI 1640 medium and incubated with sodium stibogluconate or pervanandate (0.1 mM) for various times prior to termination by lysing cells in cold lysis buffer (50 mM Tris, pH 7.4; 150 mM NaCl; 0.2 mM Na3VO4; 20 mm NaF; 1% NP40; 2 mM PMSF; 20 μg/ml of aprotinin and 1 mM of sodium molybdic acid). To determine the effect of sodium stibogluconate or potassium antimonyl tartrate on IL-3-induced Jak/Stat phosphorylation, Baf3 cells were deprived of the growth factor for 16 hours in 0.1% FCS RPMI 1640 medium and then incubated with or without sodium stibogluconate or potassium antimonyl tartrate for 10 minutes. IL-3 was next added to the cell suspension and incubated for various times. The cells were then harvested and lysed in cold lysis buffer at 4° C. for 45 minutes. Total cell lysates (TCL) were separated in SDS-PAGE gels, blotted onto nitrocellulose membrane (Schleicher & Schuell), probed with specific antibodies and detected using an enhanced chemiluminescence kit (ECL, Amersham).
# A functional role of SHP-1 in dephosphorylating the Jak family kinases during cytokine signaling has been documented. To determine whether sodium stibogluconate inhibits SHP-1 in vivo, the effect of the drug on IL-3-induced Jak2 tyrosine phosphorylation in Baf3 cells was examined. Baf3 cells deprived of IL-3 were incubated with or without the drug for 10 minutes and then stimulated with IL-3 for various times. IL-3 induced tyrosine phosphorylation of Jak2 and Stat5 in Baf3 cells in the presence or absence of the drug. However, the phosphotyrosine levels of Jak2 and Stat5 in the presence of the drug were about twice of those in cells without drug treatment as determined by densitometry analysis.
# Leishmaniasis = details: cited from earlier work
# [2] = Tolerability in nude mice (viability, body weight, appearance); type: in vivo
# Method: The effective dosage of sodium stibogluconate against WM9 and DU145 xenografts is well tolerated in nude mice. […] Thus dosage is much higher than the standard dose for Leishmaniasis (20 mg Sb/kg, daily). As an initial step to assess the toxicity of such a high dosage of sodium stibogluconate in nude mice, its effect on the viability and body weights of WM9 xenografts nude mice during the 25 day period of the study was determined.
# TF-1 cells = experiment: Proliferation of TF-1 cells with GM-CSF and IFNα (MTT); type: cell-based, human; details: at 50 μg/ml; GM-CSF 5-40 ng/ml
# Method: FIG. 7 illustrates that sodium stibogluconate augments the opposite effects of GM-CSF and IFNα on TF-1 cell growth: A. Proliferation of TF-1 cells cultured in the presence of various amounts of GM-CSF and with or without sodium stibogluconate for three days was measured by MTT assays; B. Proliferation of TF-1 cells cultured in the presence of GM-CSF (50 ng/ml) and various amounts of IFNα with or without sodium stibogluconate (50 μg/ml) for three days was measured by MTT assays; C. The results in B shown as percentage inhibition of cell growth; D. Proliferation of TF-1 cells in the presence of GM-CSF (20 ng/ml) and various amounts of sodium stibogluconate for 6 days was measured by MTT assays; E. Proliferation of TF-1 cells in the presence of GM-CSF (20 ng/ml)/IFNα (1,000 u/ml) and various amounts of sodium stibogluconate for 6 days was measured by MTT assays.
# The murine hematopoietic cell line Baf3 was maintained in RPMI 1640 medium supplemented with 10% fetal calf serum (FCS) and murine IL-3 (20 units/ml) as described previously. Human myeloid cell line TF-1 was maintained in RPMI 1640 supplemented with 10% FCS and 40 ng/ml of recombinant human GM-CSF as described previously. […] The cell numbers in proliferation assays were determined by an MTT assay or by microscopic cell counting as indicated.
# recombinant PRL-2 = biological target: T1, recombinant PRL-2 (Homo sapiens, UniProt Q12974); experiment: In vitro PTPase assay with recombinant PRL; type: biochemical; details: washing process / stable complex
# T1 construct: made in house; host or cells: E. coli DH5α
# T1 sequence (Q12974 1-167): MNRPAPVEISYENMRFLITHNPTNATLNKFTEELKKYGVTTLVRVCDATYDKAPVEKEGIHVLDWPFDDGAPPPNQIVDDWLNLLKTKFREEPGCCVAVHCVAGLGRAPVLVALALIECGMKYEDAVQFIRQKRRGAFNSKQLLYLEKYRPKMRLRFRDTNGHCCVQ
# Method: In vitro PTPase activities were measured using the commercial protein tyrosine phosphatase assay kit (UBI) following established procedure. […] 100 μl of Malachite Green solution was added and incubated for 5 minutes, and the absorbance at 660 nm was measured after 5 minutes.
# Recombinant GST fusion proteins of human PRL-1, 2 and 3 phosphatases were purified with glutathione beads from DH5α bacteria transformed by pGEX vectors containing cDNA fragments encoding the human PRLs which were generated by RT-PCR from H9 cells and confirmed by sequence analysis. Activities of the purified recombinant PRL proteins in dephosphorylating DiFMUP in the absence or presence of various inhibitors were measured following established procedure.
# To assess whether sodium stibogluconate is an inhibitor of oncogenic PRL phosphatases, its effects on the PTPase activity of recombinant PRLs were evaluated by in vitro PTPase assays.
# Melanomas = details: melanoma patients; cited from earlier work
# [3] = system: 5637 cells (Blader carcinoma); experiment: Growth inhibition of human tumor cell lines; type: cell-based; details: SS 12.5 μg/ml, IFNα 1,000 u/ml, alone or combined
# [4] = system: MDA435 cells (Breast cancer); experiment: Growth inhibition of human tumor cell lines; type: cell-based; details: SS 12.5 μg/ml, IFNα 1,000 u/ml, alone or combined
Molecule,"phosphotyrosine levels of Jak2 and Stat5 relative to cells without drug treatment ([1]; IL-3 stimulated, drug 10 minutes before, densitometry)","Jak2/Stat5 tyrosine phosphorylation by the drug alone ([1]; without IL-3, 37° C. for 16 hours)",efficacy in Leishmaniasis (Leishmaniasis; 20 mg Sb/kg body weight per day i.m. daily for 10-14 days),"known toxicity profile (Leishmaniasis; human, in vivo)","single dose used without serious toxicity (Leishmaniasis; human, in vivo)","tolerability ([2]; 12 mg Sb daily (440 mg Sb/kg daily), s.c., 25 day study)","daily dose that mice could tolerate ([2]; pilot study, approximately 700-800 mg Sb/kg) [mg Sb]",GM-CSF-induced proliferation of TF-1 cells (TF-1 cells),reversibility of PRL-2 inactivation (recombinant PRL-2),response rates (Melanomas) [%],% of growth inhibition by day 6 (±s.d.) [3],% of growth inhibition by day 6 (±s.d.) [4]
O.O.O.O.O.O.O.O.O.O=C([O-])[C@@H]1[O][Sb]2([O-])([O][Sb]34([OH])[O][C@H]([C@H](O)CO)[C@H]([O]3)[C@H](C(=O)[O-])[O]4)[O][C@H]([C@H](O)CO)[C@@H]1[O]2.[Na+].[Na+].[Na+] [sodium stibogluconate],about twice,failed to induce,70-100%,modest cardiac toxicity and leukopenia,up to 143 mg Sb/kg,well tolerated with no serious side effect,20,augmented,irreversibly inhibits,,,
IFNα,,,,,,,,,,15,28 (17) %,29 (15) %
